Measured values from patent US20100266191A1, “METHOD FOR QUANTIFYING AN UNDERLYING PROPERTY OF A MULTITUDE OF SAMPLES” (priority 2007, published 2010).

Tested on: GFP-human Akt3 fusion protein
Assay: Akt3/PKBγ Redistribution assay (inhibition of IGF-I-stimulated membrane translocation)
Format: cell-based
Conditions: dose response fit of the estimated process coordinate, two-parameter formula, FIG. 15; IGF-I as reference agonist; read-out: Wortmannin concentration causing 50% changes (a)
Description: The Akt3/PKBγ Redistribution® assay from BioImage (http://www.bioimage.com) monitors translocation of GFP-human Akt3 fusion protein from the cytoplasm to the plasma membrane. Insulin-like growth factor-I (IGF-I) is used as reference agonist, and compounds are assayed for their ability to inhibit IGF-I-stimulated membrane translocation of Akt3/PKBγ. In inhibited cells, fluorescence is quite evenly distributed in the cytoplasmic space. In activated cells, there are spots of high intensity on the membrane area. Exemplary images from negative and positive control samples are presented on FIG. 1. […] The measured profiles for a series of positive and negative control samples are presented on FIG. 10. […] The measured profiles aid us in deciding how many segments we create and where their borders are. […] On FIG. 12, mean intensities of the three segments are plotted as read out parameters from images of positive control samples (left) and negative control samples (right). […] It is a linear combination of original intensities determined from the condition given in Eq. 4. […]

Q: Which IC50 does the source give for COC[C@H]1OC(=O)c2coc3c2[C@@]1(C)C1=C(C3=O)[C@@H]2CCC(=O)[C@@]2(C)C[C@H]1OC(C)=O [Wortmannin, wortmannin] here?
A: 36.4 ± 3 nM
